HPMA copolymer = not defined here
What was measured:
HUVEC = HUVEC cell proliferation assay; assay type: cell-based, human; settings: for IC50: 48 hours incubation, Paclitaxel-equivalent, read-out: IC50, proliferation of HUVECs
Protocol: Human Umbilical vain endothelial cells (HUVEC) were plated onto 24-well plate (1×10^4 cells/well) in growth factors reduced media, (EBM-2, Cambrex, USA) supplemented with 5% Fetal Bovine Serum (FBS). Following 24 hours of incubation (37° C.; 5% CO2) medium was replaced with EGM-2 (Cambrex, USA). PC3 cells were plated onto 96 well plate (2×10^3 cells/well) in DMEM supplemented with 5% FBS and incubated for 24 hours (37° C.; 5% CO2). Following 24 hours of incubation medium was replaced with DMEM containing 10% FBS. […] Control cells were grown with or without growth factors. After incubation HUVEC and PC3 were counted by Coulter Counter or by XTT respectively.

[1] = system: human prostate cell line PC3; test: PC3 cell proliferation assay (XTT); assay type: cell-based
Protocol: Human Umbilical vain endothelial cells (HUVEC) were plated onto 24-well plate (1×10^4 cells/well) in growth factors reduced media, (EBM-2, Cambrex, USA) supplemented with 5% Fetal Bovine Serum (FBS). Following 24 hours of incubation (37° C.; 5% CO2) medium was replaced with EGM-2 (Cambrex, USA). PC3 cells were plated onto 96 well plate (2×10^3 cells/well) in DMEM supplemented with 5% FBS and incubated for 24 hours (37° C.; 5% CO2). Following 24 hours of incubation medium was replaced with DMEM containing 10% FBS. Cells were challenged with a combination of paclitaxel and ALN, a combination of Paclitaxel-FK and ALN, with each drug alone, and with […] (SEQ ID NO: 12), at serial concentrations for 72 hours. Control cells were grown with or without growth factors. After incubation HUVEC and PC3 were counted by Coulter Counter or by XTT respectively.

[2] = system: DA3 murine mammary cancer cells; test: Antitumor activity in vivo, mCherry-labeled DA3 tumors in the tibia; set-up: species or system Balb/c female mice; settings: 9 days of treatment
Protocol: 9 Balb/c female mice (n=3 per group) were injected intra tibia with 5×10^5 mCherry-labeled DA3 murine mammary cancer cells. […] (SEQ ID NO: 12) or with vehicle (1:1:8 cremophor EL:ethanol:saline). Therapy was initiated 10 days after tumor cells injection. Tumor progression was monitored by CRI™ Maestro non-invasive intravital imaging system. At termination, tibias were weighed and analyzed. Data is expressed as mean±standard error of the mean (s.e.m.).
Balb/c female mice bearing mCherry-labeled DA3 tumors in the tibia were treated with free and conjugated ALN and PTX (1:1.6, 1.25 mg/kg ALN and 2 mg/kg PTX, every day). Tumor growth rates were measured and monitored by mCherry fluorescence signal using CRI™ Maestro non-invasive intravital imaging system.

`NCCCC(O)(P(=O)(O)O)P(=O)(O)O` [ALN, (4-amino-1-hydroxybutylidene)bisphosphonic acid] was tested, and the “concentration at which proliferation of HUVEC was inhibited (only the highest dose tested)” value (HUVEC; ALN alone) was 6.25 µM, the “additional effect on proliferation of HUVEC when combined with Paclitaxel or Paclitaxel-FK” value (HUVEC; tested concentrations 10 μM-0.001 nM) was “no additional effect” and the “effect on the proliferation of PC3 cells” value ([1]; concentrations tested 0.01 nM-10 μM, alone or combined with PTX or PTX-FK) was “no effect”.
For `CC(=O)O[C@H]1C(=O)[C@@]2(C)[C@H]([C@H](OC(=O)c3ccccc3)[C@]3(O)C[C@H](OC(=O)[C@H](O)[C@@H](NC(=O)c4ccccc4)c4ccccc4)C(C)=C1C3(C)C)[C@]1(OC(C)=O)CO[C@@H]1C[C@@H]2O` [PTX, paclitaxel], the IC50 ([1]; Homo sapiens, PC-3, 72 hours, PTX alone, read-out: IC50, proliferation of PC3 cells) was 1000 nM, the “antitumor effect (in words)” value [2] was “no therapeutic effect” and the “antitumor effect (in words)” value ([2]; listed as Free PTX) was “no antitumor effect”. For the same compound, the “antitumor effect (in words)” value ([2]; listed as free PTX) was “unaffected”.
“HPMA copolymer-GGFK-PTX conjugate: cathepsin B-enzymatically cleavable HPMA copolymer conjugate of paclitaxel ({HPMA copolymer}-GGFK-paclitaxel; reading uncertain; also: conjugated to HPMA copolymer, conjugated to paclitaxel (PTX))” gave an IC50 (HUVEC) of ~100 nM.
For “HPMA copolymer-GGGG-PTX conjugate ({HPMA copolymer}-GGGG-paclitaxel; reading uncertain; also: conjugated to HPMA copolymer, conjugated to paclitaxel (PTX))”, the “concentration inhibiting HUVEC proliferation relative to cathepsin B cleavable HPMA-GGFK-PTX conjugate” value (HUVEC; 48 hours) was 2 logs and the IC50 (HUVEC) was ~10000 nM.

Reference: patent publication US9427474B2, “Conjugates of a polymer, a bisphosphonate and an anti-angiogenesis agent and uses thereof in the treatment and monitoring of bone related diseases” (Ramot at Tel-Aviv University Ltd., priority 2008, dated 2016)
